Measured values: ChEMBL document CHEMBL1201862, “PubChem BioAssay data set” (2004)
Active and inactive are the calls of the source.

Columns and labels:
[1] = biological target: Serine/threonine-protein kinase pim-1 (Homo sapiens, UniProt P11309); format: functional
LIM domain kinase 1 = LIM domain kinase 1 (Homo sapiens, UniProt P53667); test: Navigating the Kinome. Panel member name: LIMK1; format: functional
[2] = biological target: Serine/threonine-protein kinase Chk1 (Homo sapiens, UniProt O14757); format: functional;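 also: measured as one member of a kinome-wide kinase profiling panel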
[3] = biological target: Rho-associated protein kinase 1 (Homo sapiens, UniProt Q13464); format: functional;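 also: measured within a broad kinome-wide panel profiling many kinases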
Sequence of Rho-associated protein kinase 1 (Q13464 whole entry): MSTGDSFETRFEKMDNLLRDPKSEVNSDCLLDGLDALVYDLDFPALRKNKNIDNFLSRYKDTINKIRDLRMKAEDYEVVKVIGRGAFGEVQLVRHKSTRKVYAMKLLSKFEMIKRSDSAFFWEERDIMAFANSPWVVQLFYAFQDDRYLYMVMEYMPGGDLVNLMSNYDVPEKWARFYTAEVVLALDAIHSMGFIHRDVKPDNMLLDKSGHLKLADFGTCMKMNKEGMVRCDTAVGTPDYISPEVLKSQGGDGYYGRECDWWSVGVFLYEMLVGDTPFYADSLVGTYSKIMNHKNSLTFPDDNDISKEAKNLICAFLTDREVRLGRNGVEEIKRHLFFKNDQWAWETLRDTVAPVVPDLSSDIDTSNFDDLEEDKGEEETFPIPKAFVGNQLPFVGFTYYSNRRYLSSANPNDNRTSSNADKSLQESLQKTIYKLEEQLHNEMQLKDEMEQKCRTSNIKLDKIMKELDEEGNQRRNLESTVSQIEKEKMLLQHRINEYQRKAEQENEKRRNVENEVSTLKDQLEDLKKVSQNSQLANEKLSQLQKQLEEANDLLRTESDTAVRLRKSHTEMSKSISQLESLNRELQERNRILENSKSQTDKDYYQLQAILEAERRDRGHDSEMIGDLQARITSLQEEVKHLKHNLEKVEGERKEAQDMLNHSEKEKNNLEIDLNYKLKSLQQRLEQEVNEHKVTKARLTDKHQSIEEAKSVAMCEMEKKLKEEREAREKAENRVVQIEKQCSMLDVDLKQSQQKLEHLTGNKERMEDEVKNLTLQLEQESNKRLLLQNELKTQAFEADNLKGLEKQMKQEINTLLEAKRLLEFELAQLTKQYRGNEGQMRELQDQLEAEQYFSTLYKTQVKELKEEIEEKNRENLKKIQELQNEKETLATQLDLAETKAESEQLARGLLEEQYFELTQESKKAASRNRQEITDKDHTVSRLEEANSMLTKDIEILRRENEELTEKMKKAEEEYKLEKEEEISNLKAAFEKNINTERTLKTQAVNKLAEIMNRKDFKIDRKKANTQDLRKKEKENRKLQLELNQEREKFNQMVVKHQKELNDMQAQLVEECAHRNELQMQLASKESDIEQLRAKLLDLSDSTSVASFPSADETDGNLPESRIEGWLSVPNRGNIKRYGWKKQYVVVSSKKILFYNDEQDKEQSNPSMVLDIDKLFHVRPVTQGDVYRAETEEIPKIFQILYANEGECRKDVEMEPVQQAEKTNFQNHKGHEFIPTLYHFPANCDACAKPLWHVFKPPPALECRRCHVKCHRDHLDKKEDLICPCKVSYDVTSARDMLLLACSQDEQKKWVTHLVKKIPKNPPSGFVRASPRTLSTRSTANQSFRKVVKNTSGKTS

[4] = biological target: Cyclin-dependent kinase 8 (Homo sapiens, UniProt P49336); test: Navigating the Kinome. Panel member name: CDK8; format: functional
[5] = biological target: Cyclin-dependent kinase 7 (Homo sapiens, UniProt P50613); format: functional;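 also: value comes from a kinome-wide kinase profiling panel in which CDK7 is one member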
Sequence of Cyclin-dependent kinase 7 (P50613 whole entry): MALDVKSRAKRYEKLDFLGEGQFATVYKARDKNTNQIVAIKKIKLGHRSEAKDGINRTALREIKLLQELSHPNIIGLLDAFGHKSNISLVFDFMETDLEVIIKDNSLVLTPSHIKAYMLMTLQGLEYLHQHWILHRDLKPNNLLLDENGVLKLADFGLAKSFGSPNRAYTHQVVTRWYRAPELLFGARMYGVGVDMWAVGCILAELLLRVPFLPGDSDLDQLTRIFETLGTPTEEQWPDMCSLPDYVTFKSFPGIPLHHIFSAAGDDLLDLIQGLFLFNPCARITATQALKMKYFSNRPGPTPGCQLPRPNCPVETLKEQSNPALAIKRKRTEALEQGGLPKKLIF

[6] = biological target: T1, Glycogen synthase kinase-3 beta (Homo sapiens, UniProt P49841); format: functional;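 also: value comes from a broad kinome profiling panel, with GSK3B as the panel member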
T1 sequence (P49841 whole entry): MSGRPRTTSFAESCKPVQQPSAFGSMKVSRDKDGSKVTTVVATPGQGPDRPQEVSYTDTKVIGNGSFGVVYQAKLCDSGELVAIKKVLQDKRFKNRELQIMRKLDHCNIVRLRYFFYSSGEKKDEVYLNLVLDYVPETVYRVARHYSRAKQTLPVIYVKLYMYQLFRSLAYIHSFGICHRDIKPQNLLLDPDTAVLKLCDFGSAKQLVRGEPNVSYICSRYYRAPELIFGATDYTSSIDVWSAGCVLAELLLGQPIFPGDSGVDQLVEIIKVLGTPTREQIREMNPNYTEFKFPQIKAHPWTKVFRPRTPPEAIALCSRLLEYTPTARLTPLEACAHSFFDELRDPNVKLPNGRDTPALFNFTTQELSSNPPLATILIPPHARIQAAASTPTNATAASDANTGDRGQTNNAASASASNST

[7] = biological target: Cyclin-dependent kinase 9 (Homo sapiens, UniProt P50750); format: functional;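 also: value from the CDK9 entry of a kinome-spanning kinase panel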
[8] = biological target: Dual specificity protein kinase CLK4 (Homo sapiens, UniProt Q9HAZ1); format: functional
[9] = biological target: T2, Protein kinase C zeta type (Homo sapiens, UniProt Q05513); format: functional;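 also: measured as one member of a broad kinase profiling panel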
T2 sequence (Q05513 whole entry): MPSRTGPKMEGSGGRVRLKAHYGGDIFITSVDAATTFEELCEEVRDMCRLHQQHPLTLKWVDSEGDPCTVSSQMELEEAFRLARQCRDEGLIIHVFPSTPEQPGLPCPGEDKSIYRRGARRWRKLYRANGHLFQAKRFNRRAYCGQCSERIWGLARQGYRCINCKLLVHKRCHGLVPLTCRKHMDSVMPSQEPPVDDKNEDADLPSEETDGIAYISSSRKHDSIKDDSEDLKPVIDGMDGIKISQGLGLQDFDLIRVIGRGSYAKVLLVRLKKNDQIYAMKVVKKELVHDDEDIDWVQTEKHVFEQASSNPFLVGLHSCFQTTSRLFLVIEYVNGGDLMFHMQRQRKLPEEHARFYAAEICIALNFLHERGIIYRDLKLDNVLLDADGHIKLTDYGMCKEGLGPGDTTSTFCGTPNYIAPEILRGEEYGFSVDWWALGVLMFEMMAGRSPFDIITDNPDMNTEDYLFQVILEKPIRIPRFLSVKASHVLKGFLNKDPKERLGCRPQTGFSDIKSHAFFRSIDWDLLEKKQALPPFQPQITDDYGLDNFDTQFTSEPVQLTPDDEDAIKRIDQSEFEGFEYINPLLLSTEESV

[10] = biological target: PAS domain-containing serine/threonine-protein kinase (Homo sapiens, UniProt Q96RG2); format: functional
[11] = biological target: Eukaryotic elongation factor 2 kinase (Homo sapiens, UniProt O00418); format: functional
[12] = biological target: T3, Testis-specific serine/threonine-protein kinase 2 (Homo sapiens, UniProt Q96PF2); format: functional;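 also: part of the Navigating the Kinome panel, target entry STK22B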
T3 sequence (Q96PF2 whole entry): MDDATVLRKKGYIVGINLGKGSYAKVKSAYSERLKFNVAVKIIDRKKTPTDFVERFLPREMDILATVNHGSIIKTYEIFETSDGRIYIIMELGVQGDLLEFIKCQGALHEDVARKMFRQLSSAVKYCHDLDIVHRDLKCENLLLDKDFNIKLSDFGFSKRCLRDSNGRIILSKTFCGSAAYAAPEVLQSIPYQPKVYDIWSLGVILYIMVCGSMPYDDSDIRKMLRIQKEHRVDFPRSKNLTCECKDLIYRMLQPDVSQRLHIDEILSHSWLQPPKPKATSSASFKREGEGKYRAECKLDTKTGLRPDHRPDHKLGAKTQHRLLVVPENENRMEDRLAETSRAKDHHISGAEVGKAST

[13] = biological target: Cell division cycle 7-related protein kinase (Homo sapiens, UniProt O00311); format: functional;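 also: value obtained from a kinome-wide kinase panel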
Sequence of Cell division cycle 7-related protein kinase (O00311 whole entry): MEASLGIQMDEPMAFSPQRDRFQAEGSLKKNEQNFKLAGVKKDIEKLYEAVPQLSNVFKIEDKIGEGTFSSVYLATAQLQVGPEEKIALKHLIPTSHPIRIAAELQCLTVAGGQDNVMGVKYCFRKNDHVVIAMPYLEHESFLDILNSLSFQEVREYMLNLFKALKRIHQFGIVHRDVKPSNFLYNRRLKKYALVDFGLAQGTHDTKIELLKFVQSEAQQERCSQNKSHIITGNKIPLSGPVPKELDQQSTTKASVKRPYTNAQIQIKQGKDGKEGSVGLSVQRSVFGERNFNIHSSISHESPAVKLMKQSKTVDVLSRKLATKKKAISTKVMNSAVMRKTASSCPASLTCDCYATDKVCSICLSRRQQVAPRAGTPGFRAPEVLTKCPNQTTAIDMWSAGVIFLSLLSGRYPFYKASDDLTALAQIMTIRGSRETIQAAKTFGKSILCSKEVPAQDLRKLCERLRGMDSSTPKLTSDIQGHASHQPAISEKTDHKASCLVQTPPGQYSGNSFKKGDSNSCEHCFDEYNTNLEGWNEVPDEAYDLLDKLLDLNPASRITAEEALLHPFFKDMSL

[14] = biological target: Protein kinase C gamma type (Homo sapiens, UniProt P05129); format: functional
[15] = biological target: T4, Dual specificity tyrosine-phosphorylation-regulated kinase 3 (Homo sapiens, UniProt O43781); format: functional;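 also: measured as one member of a broad kinase panel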
T4 sequence (O43781 whole entry): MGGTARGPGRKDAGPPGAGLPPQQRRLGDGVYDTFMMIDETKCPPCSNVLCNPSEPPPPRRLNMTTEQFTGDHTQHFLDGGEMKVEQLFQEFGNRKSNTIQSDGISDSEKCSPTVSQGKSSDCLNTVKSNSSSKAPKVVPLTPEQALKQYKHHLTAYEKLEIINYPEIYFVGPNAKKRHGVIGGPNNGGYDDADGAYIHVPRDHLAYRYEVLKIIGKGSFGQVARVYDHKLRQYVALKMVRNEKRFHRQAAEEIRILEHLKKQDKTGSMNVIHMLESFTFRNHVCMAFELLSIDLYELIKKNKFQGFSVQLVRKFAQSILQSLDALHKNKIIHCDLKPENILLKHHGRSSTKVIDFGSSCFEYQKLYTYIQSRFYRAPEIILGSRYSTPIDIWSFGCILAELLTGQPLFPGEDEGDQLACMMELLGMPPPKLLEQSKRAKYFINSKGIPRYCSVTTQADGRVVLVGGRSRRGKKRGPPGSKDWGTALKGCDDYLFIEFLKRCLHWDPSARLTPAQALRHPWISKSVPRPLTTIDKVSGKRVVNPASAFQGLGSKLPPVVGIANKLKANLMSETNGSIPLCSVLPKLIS

[16] = biological target: MAP kinase-activated protein kinase 3 (Homo sapiens, UniProt Q16644); format: functional;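 also: value comes from a kinome-wide profiling panel in which MAPKAPK3 is one of the panel members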
Sequence of MAP kinase-activated protein kinase 3 (Q16644 whole entry): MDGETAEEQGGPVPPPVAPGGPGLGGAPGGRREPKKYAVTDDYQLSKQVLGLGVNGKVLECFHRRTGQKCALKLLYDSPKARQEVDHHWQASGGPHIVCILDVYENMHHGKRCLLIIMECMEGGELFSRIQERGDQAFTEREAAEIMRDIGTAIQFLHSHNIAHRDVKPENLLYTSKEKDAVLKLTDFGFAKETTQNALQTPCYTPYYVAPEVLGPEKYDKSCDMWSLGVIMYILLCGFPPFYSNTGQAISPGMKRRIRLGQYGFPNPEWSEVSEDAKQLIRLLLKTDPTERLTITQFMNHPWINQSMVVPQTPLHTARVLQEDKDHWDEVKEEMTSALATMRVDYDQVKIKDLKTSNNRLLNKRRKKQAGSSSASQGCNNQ

[17] = biological target: G protein-coupled receptor kinase 5 (Homo sapiens, UniProt P34947); test: Navigating the Kinome. Panel member name: GPRK5; format: functional
Sequence of G protein-coupled receptor kinase 5 (P34947 whole entry): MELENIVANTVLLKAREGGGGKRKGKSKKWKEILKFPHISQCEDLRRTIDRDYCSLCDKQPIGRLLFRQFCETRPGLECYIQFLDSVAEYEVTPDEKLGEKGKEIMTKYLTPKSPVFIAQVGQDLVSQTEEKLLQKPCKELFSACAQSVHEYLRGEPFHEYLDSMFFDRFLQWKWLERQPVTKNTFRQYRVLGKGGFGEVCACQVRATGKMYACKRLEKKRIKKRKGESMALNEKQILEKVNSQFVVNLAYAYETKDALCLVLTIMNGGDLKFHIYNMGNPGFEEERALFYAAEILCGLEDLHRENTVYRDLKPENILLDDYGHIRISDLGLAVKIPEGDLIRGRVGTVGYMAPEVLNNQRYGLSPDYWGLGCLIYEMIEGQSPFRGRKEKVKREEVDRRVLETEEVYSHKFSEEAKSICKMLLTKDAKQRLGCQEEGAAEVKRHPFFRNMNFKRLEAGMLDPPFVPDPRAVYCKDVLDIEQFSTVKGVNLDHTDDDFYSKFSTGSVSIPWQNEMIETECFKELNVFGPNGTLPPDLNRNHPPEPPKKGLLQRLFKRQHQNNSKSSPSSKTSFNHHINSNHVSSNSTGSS

[18] = biological target: Cyclin-dependent kinase 1 (Homo sapiens, UniProt P06493); format: functional;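 also: Kinome-wide panel profiling, with the target listed as panel member CDC2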
[19] = biological target: T5, Lymphokine-activated killer T-cell-originated protein kinase (Homo sapiens, UniProt Q96KB5); format: functional;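 also: value comes from a kinase panel screen in which TOPK was one of the panel members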
T5 sequence (Q96KB5 whole entry): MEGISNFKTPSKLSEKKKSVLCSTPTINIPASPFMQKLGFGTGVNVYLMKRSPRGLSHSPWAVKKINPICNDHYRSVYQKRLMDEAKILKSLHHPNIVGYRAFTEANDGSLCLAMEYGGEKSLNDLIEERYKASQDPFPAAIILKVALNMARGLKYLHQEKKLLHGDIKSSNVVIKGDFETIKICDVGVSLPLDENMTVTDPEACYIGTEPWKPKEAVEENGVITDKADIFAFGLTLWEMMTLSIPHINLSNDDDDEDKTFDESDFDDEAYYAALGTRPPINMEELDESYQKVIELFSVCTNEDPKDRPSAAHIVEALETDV

[20] = biological target: T1, Glycogen synthase kinase-3 beta; test: GSK3beta kinase inhibitors, dose response, biochemical, microfluidics, dry powder samples, set 2 (AID 623989); format: functional
[21] = biological target: Glycogen synthase kinase-3 alpha (Homo sapiens, UniProt P49840); test: human GSK3 alpha kinase inhibition, dose response, selectivity assay for GSK3beta inhibitor project, biochemical, microfluidics, dry powder samples, set 2 (AID 623978); format: functional
Sequence of Glycogen synthase kinase-3 alpha (P49840 whole entry): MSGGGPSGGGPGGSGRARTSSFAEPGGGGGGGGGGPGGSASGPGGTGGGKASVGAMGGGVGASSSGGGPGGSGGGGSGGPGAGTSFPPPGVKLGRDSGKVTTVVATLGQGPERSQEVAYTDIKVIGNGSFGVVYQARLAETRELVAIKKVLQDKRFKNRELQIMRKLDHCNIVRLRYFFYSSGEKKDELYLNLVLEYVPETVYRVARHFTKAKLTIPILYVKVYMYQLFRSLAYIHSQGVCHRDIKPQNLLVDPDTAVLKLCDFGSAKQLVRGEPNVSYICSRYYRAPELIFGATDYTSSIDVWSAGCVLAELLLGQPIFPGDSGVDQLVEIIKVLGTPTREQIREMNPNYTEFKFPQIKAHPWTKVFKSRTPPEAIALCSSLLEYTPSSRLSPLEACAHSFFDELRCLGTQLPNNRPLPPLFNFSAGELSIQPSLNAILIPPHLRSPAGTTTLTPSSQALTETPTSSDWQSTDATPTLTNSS

[22] = biological target: Neuropeptides B/W receptor type 1 (Homo sapiens, UniProt P48145); test: GPR7 antagonist potency, late-stage follow-up, cell-based, fluorescence, dose response, set 5 (AID 588566); format: functional
[23] = biological target: Melanin-concentrating hormone receptor 1 (Homo sapiens, UniProt Q99705); test: Late-stage fluorescence-based counterscreen for antagonists of the G-protein coupled receptor 7 (GPR7): cell-based dose response assay to identify antagonists of the melanin-concentrating hormone receptor 1 (MCHR1) Set 5.; format: functional
Bcl-2-related protein A1 = biological target: T6, Bcl-2-related protein A1 (Mus musculus, UniProt Q07440); format: functional;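 also: confirmatory dose–response counterscreen on Bfl-1, used to check hits from a UBC13 polyubiquitin inhibitor campaign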
T6 sequence (Q07440 whole entry): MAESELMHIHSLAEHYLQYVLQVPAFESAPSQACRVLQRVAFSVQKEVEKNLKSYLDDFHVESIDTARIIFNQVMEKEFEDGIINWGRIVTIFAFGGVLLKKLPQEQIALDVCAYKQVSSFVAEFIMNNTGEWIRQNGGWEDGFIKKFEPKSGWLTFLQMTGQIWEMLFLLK

[24] = biological target: T7, Ubiquitin-conjugating enzyme E2 N (Homo sapiens, UniProt P61088); format: functional
T7 sequence (P61088 whole entry): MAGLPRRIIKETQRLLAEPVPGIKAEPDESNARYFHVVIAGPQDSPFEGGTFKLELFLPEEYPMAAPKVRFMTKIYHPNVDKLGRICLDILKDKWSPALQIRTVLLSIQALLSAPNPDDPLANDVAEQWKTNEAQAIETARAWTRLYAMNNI

CAAX prenyl protease 2 = biological target: T8, CAAX prenyl protease 2 (Saccharomyces cerevisiae S288c, UniProt Q03530); format: biochemical
T8 sequence (Q03530 whole entry): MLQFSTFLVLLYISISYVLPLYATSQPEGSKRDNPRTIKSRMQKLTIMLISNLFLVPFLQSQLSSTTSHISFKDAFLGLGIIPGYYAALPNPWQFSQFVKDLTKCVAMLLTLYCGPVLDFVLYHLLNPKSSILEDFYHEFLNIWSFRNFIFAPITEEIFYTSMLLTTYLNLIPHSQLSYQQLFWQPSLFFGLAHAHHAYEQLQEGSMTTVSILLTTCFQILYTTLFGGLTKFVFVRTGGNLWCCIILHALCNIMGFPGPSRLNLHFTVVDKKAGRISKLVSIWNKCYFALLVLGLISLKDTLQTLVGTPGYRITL

[25] = biological target: T7, Ubiquitin-conjugating enzyme E2 N; format: functional; remark: listed apart in the source
CAAX prenyl protease 1 = CAAX prenyl protease 1 (Saccharomyces cerevisiae S288c, UniProt P47154); test: Ste24 protease inhibitors, dose response, biochemical, S. cerevisiae, plate reader, cherry-pick (AID 488815)
[26] = biological target: T9, High affinity choline transporter 1 (Homo sapiens, UniProt Q9GZV3); test: CHT inhibitors, dose response, cell-based, 5-point CRC, membrane potential dye (AID 504840); format: functional
T9 sequence (Q9GZV3 whole entry): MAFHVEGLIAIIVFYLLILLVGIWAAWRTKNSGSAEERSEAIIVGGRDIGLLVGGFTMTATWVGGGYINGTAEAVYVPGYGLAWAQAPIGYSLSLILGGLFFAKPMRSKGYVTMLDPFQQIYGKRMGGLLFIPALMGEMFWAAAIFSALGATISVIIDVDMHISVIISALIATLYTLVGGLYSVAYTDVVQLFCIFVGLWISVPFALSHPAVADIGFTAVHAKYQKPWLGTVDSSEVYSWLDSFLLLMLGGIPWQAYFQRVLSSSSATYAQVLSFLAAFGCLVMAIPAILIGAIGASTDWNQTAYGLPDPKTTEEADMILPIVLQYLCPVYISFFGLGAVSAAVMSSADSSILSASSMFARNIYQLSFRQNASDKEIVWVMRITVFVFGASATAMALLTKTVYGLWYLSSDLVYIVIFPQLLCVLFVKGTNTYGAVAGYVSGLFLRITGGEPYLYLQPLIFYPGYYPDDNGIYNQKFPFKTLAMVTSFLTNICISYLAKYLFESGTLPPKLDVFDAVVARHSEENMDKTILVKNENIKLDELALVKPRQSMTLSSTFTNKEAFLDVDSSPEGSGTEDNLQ

[27] = biological target: T9, High affinity choline transporter 1; test: CHT inhibitors, dose response, cell-based, 10-point CRC, membrane potential dye (AID 588401); format: functional;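 also: membrane potential dye fluorescence of choline-evoked depolarization via CHT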

Sequence of LIM domain kinase 1 (P53667 whole entry, the tested form may be a part): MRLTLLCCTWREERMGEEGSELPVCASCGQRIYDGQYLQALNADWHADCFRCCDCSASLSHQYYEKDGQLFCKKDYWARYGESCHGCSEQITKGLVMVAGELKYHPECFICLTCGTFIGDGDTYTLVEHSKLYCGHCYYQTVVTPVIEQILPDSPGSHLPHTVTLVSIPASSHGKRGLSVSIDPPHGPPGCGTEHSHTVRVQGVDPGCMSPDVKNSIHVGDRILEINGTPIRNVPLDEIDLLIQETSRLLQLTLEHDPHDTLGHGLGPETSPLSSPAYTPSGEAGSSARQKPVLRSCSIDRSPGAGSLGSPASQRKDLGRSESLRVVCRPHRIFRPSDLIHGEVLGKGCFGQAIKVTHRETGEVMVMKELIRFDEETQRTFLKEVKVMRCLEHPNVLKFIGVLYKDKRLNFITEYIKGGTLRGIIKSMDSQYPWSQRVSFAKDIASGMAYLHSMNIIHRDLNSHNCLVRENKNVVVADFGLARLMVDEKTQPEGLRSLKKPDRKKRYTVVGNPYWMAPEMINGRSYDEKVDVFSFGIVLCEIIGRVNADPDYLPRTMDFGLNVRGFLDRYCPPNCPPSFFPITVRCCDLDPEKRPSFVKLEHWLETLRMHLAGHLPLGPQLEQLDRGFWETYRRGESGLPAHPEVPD

O=C(C=Cc1ccc(Br)cc1)Nc1cccc2cnccc12
active: Ki [1] 2.51 µM | Ki (LIM domain kinase 1) 3.16 µM | Ki [2] 2 µM | Ki [3] 3.16 µM | Ki [4] 2 µM | Ki [5] 1.58 µM | Ki [6] 2 µM | Ki [7] 1.58 µM | Ki [8] 1.58 µM

CNC(=O)c1ccccc1Sc1ccc2c(C=Cc3ccccn3)n[nH]c2c1
inactive: Ki [9] > 7.94 µM | Ki [10] > 1.58 µM | Ki [11] > 3.98 µM | Ki [12] > 1.58 µM | Ki [13] > 1.26 µM | Ki [14] > 7.94 µM | Ki [15] > 6.31 µM | Ki [16] > 10 µM | Ki [17] > 3.98 µM | Ki [18] > 7.94 µM | Ki [19] > 10 µM

Nc1nc(NCC2CCCO2)nc(Nc2ccc(Cl)cc2)c1[N+](=O)[O-] (stereo unspecified)
active: AC50 [20] 0.429 µM | AC50 [21] 1.56 µM

COc1ccc(Oc2c(F)cnn(Cc3cccc4ccccc34)c2=O)cc1
active: IC50 [22] 2.07 µM | IC50 [23] 8.86 µM

NCCCn1c(C(=O)c2cc(Cl)c(N)c(Cl)c2)c2ccc(C(F)(F)F)cc2[n+]1[O-]
inactive: IC50 (Bcl-2-related protein A1) > 20 µM | AC50 (CAAX prenyl protease 1) > 100 µM
active: IC50 [24] 4.28 µM | AC50 (CAAX prenyl protease 2) 35.5 µM | IC50 [25] 4.21 µM | IC50 [26] 1.39 µM | IC50 [27] 1.08 µM
